Some results are limits rather than exact numbers.

For orientation: inhibition means how much of the control response was suppressed.

The subject of test [1] is Human non-small cell lung cancer cell line NCI-H1975. As to the kind of experiment: Inhibition of H1975 cell proliferation (CellTiter luminescent viability). Format: cell-based. As to conditions: Table ID1, EGFR inhibitor-based; H1975, 96 hours; read-out: Inhibitory activity (IC50, nM) on tumor cell proliferation, H1975. The protocol: The tumor cells used herein were cultured in a cell culture medium listed in table 3 at 37 °C in an incubator with 5% CO2. Prior to experimentation, all cell lines used were correctly identified by STR profiling, and tested negative for mycoplasma contamination using a mycoplasma detection kit through routine screenings.
The IC50 values of the compounds of the present disclosure (including the compounds in Table 1, Table 2, and Examples 1-468) were determined using the CellTiter-Meiluncell Luminescent Cell Viability Assay Kit from Dalian Meilun Biotech Co., Ltd. The detailed procedure is as follows: Tumor cells were seeded in 96-well cell culture plates at the densities specified in Table 4. On the following day, the test compounds of the present disclosure were subjected to serial dilution. The dilution can be performed according to one of the following two methods: • (1) The first dilution method: The test compounds of the present disclosure (including the compounds in Table 1, Table 2, and Examples 1-468) were subjected to 5-fold serial dilutions starting from a highest concentration of 2000 μM, resulting in a total of 9 concentrations from high to low (2000, 400, 80, 16, 3.2, 0.64, 0.128, 0.0256, 0.00512 μM). Subsequently, 0.5 μL of the test compound dilution was transferred into the 96-well plate containing the cells, with each well containing 100 μL of cell culture medium. […] Into the 96-well plate, the diluted test compounds and corresponding detection reagents were added, resulting in final test compound concentrations of 500 nM and 10 nM, respectively. The experimental procedure is described below using the diluted 2 μM test compound as an example.
0.5 μL of the aforementioned diluted compound of the present disclosure (including the compounds in Table 1, Table 2, and Examples 1-468) was added to the seeded cells in 100 μL of medium, yielding a final test compound concentration of 10 nM. After the cells were treated with the compounds of the present disclosure for a specified period, the cell viability assay reagent was added to the culture medium according to the kit's instructions to determine cell viability. […] All controls were treated using the same procedure as the compounds of the present disclosure. The growth inhibition curves for the compounds of the present disclosure were plotted using Prism GraphPad software, and the IC50 values were calculated therefrom.

Test [2] has as its target T1, human Cereblon WT GST-tagged protein (CRBN) (Homo sapiens, UniProt Q96SW2).
T1 construct: purchased CISBIO 64BDCRBNPEH
As to the kind of experiment: CRBN binding by HTRF (Cereblon binding kit). Conditions: for inhibition at 0.5 µM: read-out: Inhibition Rate at 0.5 μM (%); for inhibition at 2 µM: read-out: Inhibition Rate at 2 μM (%). A digest of the protocol: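 GST-tagged human Cereblon WT was incubated 3 h at room temperature with compound, thalidomide-Re tracer and Eu anti-GST antibody. Final compound concentrations were 10 to 0.00064 µM (7 points) or 2 and 0.5 µM. Inhibition rate was calculated from HTRF 665/620 nm ratios versus solvent and blank controls.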
(TR-FRET usually uses a lanthanide donor and a delayed reading to cut background.)

The next test has as its target T2, EGFR (Homo sapiens, UniProt P00533).
T2 construct: L858R/T790M in cis, heterozygous with wild type), Western blot
Briefly: Western blot degradation of EGFR. Format: cell-based. Conditions: H1975 Cell; 24 hours. The protocol: Conventional Western blot assay was performed to evaluate the effects of the compounds of the present disclosure on the expression of target proteins in cells.
(1) Cell Seeding and Protein Harvesting: The selected cells were processed according to the cell seeding procedure and protein harvesting procedure in Table II-2.
(2) To the collected supernatant, 5×SDS sample loading buffer was added, followed by denaturation at 95 °C for 5 minutes. The denatured samples were then separated by SDS-PAGE electrophoresis on a polyacrylamide gel. Proteins were transferred to a nitrocellulose membrane (0.45 μm NC membrane), blocked with blocking buffer at room temperature for 1 hour, and subjected to antibody incubation and development procedures according to the antibody manufacturer's instructions (Cell Signaling Technology).
Half-Maximal Degradation Concentration value (the drug concentration required for degrading proteins by 50%, abbreviated as DC50) reads method: comparing the grayscale values of Western blot bands from drug-treated samples with those from blank DMSO-treated controls, and identifying the drug concentration range at which the grayscale value is half that of the DMSO-treated control bands.
DC50 values can be calculated using ImageJ software to measure grayscale values of Western blot bands from drug-treated samples. The concentration-response curve is fitted to estimate the drug concentration corresponding to half the grayscale value.
Target protein remaining (%) refers to the percentage of target protein remaining in cells after treatment with protein degrader compounds.
Calculation method for target protein remaining (%): Use ImageJ software to measure grayscale values of Western blot bands from drug (protein degrader)-treated samples. The grayscale value of drug-treated bands is divided by that of internal control protein bands, and the resulting quotient is normalized to obtain the relative percentage of remaining target protein after protein degrader treatment.
Target protein degradation rate (%)=1−target protein remaining (%).
(In general: In western blotting, separated proteins are transferred to a membrane and probed.)

T1 sequence (Q96SW2 whole entry): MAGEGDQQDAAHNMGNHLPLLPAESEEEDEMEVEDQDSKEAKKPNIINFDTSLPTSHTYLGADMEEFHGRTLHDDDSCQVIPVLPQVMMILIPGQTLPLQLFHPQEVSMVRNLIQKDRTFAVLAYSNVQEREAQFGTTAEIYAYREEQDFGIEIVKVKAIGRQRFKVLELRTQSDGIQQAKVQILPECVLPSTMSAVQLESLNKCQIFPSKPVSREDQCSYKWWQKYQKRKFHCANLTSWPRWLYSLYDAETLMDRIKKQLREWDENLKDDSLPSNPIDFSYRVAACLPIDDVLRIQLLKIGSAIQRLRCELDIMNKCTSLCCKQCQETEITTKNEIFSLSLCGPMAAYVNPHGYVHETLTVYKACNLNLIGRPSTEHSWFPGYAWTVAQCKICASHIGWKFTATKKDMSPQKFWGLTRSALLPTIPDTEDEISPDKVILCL
T2 sequence (P00533 25-1210): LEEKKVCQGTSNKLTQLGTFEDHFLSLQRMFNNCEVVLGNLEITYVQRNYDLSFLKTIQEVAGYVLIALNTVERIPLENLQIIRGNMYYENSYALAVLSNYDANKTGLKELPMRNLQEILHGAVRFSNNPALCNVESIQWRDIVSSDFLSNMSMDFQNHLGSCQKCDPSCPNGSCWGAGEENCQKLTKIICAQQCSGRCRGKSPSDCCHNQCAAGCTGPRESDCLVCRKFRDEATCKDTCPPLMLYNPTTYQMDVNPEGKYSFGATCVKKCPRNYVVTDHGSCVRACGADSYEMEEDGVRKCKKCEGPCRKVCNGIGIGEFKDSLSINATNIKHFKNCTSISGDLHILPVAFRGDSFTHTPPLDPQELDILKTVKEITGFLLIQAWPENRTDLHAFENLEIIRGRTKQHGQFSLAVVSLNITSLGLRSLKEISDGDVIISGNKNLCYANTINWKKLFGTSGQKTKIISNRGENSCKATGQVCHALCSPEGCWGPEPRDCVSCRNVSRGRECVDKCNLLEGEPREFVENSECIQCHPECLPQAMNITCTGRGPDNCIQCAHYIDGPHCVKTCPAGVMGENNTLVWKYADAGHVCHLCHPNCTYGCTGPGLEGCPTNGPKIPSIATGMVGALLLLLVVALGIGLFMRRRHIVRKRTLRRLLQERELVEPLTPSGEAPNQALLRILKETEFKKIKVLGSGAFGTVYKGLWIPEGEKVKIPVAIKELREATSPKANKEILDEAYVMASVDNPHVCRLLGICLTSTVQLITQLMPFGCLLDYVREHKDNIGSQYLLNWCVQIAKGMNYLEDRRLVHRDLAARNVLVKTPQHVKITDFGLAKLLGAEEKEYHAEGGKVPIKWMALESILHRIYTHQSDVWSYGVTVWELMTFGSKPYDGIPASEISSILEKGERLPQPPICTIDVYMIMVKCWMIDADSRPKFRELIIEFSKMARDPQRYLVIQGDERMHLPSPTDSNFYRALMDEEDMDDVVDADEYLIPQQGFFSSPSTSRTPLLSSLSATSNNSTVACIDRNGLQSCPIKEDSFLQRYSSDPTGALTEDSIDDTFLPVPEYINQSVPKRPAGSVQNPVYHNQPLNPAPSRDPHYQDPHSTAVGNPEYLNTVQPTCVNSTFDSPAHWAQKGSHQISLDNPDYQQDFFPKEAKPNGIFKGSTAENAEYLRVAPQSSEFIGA
T2 sequence (Q96SW2 whole entry partner): as the sequence (Q96SW2 whole entry) above

On to `O=C1CCN(N2C(=O)c3ccc(CN4CCN(c5ccc(-c6cc(F)c7c(c6)C(=O)N(C(C(=O)Nc6nccs6)c6ncn8c6CCC8)C7)cc5)CC4)cc3C2=O)C(=O)N1` (stereo not shown) [GT-06160, 2-(6,7-dihydro-5H-pyrrolo[1,2-c]imidazol-1-yl)-2-(6-(4-(4-((2-(2,4-dioxotetrahydropyrimidin-1(2H)-yl)-1,3-dioxoisoindolin-5-yl)methyl)piperazin-1-yl)phenyl)-4-fluoro-1-oxoisoindolin-2-yl)-N-(thiazol-2-yl)acetamide], for which, in test [1], the IC50 lay in the range of 100 to 130 nM. `O=C1CCN(N2C(=O)c3ccc(CN4C[C@H]5C[C@@H]4CN5c4ccc(-c5cc(F)c6c(c5)C(=O)N(C(C(=O)Nc5nccs5)c5ncn7c5CCC7)C6)cc4)cc3C2=O)C(=O)N1` (stereo partly drawn) [GT-06173, 2-(6,7-dihydro-5H-pyrrolo[1,2-c]imidazol-1-yl)-2-(6-(4-((1R,4R)-5-((2-(2,4-dioxotetrahydropyrimidin-1(2H)-yl)-1,3-dioxoisoindolin-5-yl)methyl)-2,5-diazabicyclo[2.2.1]heptan-2-yl)phenyl)-4-fluoro-1-oxoisoindolin-2-yl)-N-(thiazol-2-yl)acetamide]: the IC50 in test [1] lay within 50 to 100 nM. Regarding `O=C1CCN(N2Cc3cc(CN4C5CCC4CN(c4ccc(-c6cc(F)c7c(c6)C(=O)N(C(C(=O)Nc6nccs6)c6ncn8c6CCC8)C7)cc4)C5)ccc3C2=O)C(=O)N1` (stereo not shown) [GT-06250, 2-(6,7-dihydro-5H-pyrrolo[1,2-c]imidazol-1-yl)-2-(6-(4-(8-((2-(2,4-dioxotetrahydropyrimidin-1(2H)-yl)-1-oxoisoindolin-5-yl)methyl)-3,8-diazabicyclo[3.2.1]octan-3-yl)phenyl)-4-fluoro-1-oxoisoindolin-2-yl)-N-(thiazol-2-yl)acetamide], the IC50 in test [1] was below 10 nM. With `O=C1CCN(N2Cc3cc(CN4C[C@H]5C[C@@H]4CN5c4ccc(-c5cc(F)c6c(c5)C(=O)N(C(C(=O)Nc5nccs5)c5ncn7c5CCC7)C6)cc4)ccc3C2=O)C(=O)N1` (stereo partly drawn) [GT-06172, 2-(6,7-dihydro-5H-pyrrolo[1,2-c]imidazol-1-yl)-2-(6-(4-((1R,4R)-5-((2-(2,4-dioxotetrahydropyrimidin-1(2H)-yl)-1-oxoisoindolin-5-yl)methyl)-2,5-diazabicyclo[2.2.1]heptan-2-yl)phenyl)-4-fluoro-1-oxoisoindolin-2-yl)-N-(thiazol-2-yl)acetamide], the IC50 in test [1] is below 10 nM.

With `O=C1CCN(N2C(=O)c3ccc(CN4C5CCC4CN(c4ccc(-c6cc(F)c7c(c6)C(=O)N(C(C(=O)Nc6nccs6)c6ncn8c6CCC8)C7)cc4)C5)cc3C2=O)C(=O)N1` (stereo not shown) [GT-06251, 2-(6,7-dihydro-5H-pyrrolo[1,2-c]imidazol-1-yl)-2-(6-(4-(8-((2-(2,4-dioxotetrahydropyrimidin-1(2H)-yl)-1,3-dioxoisoindolin-5-yl)methyl)-3,8-diazabicyclo[3.2.1]octan-3-yl)phenyl)-4-fluoro-1-oxoisoindolin-2-yl)-N-(thiazol-2-yl)acetamide], in test [1], the IC50 is 100 to 130 nM. Regarding `CN(Cc1ccc2c(c1)CN(N1CCC(=O)NC1=O)C2=O)C1CCN(c2ccc(Nc3ncc4nc(Nc5ccccc5)n(C5CCCC5)c4n3)cc2)CC1` [GT-05842, 1-(5-(((1-(4-((9-cyclopentyl-8-(phenylamino)-9H-purin-2-yl)amino)phenyl)piperidin-4-yl)(methyl)amino)methyl)-1-oxoisoindolin-2-yl)dihydropyrimidine-2,4 (1H,3H)-dione], in test [2], the inhibition at 0.5 µM fell in the range of 10 to 20% and the inhibition at 2 µM is 53 to 60%. For the same compound, at EGFR, the “Degradation of substrate protein EGFR (substrate protein remaining %)” value (shortened to “Degradation … (substrate protein remaining %)”) is “A (0%≤substrate protein remaining %≤80%)”. For `COC1CCN(c2nccc(Nc3cc4c(cn3)c(N3CCC(N(C)CC5CCN(c6cccc7c6C(=O)N(N6CCC(=O)NC6=O)C7=O)CC5)CC3)nn4C(C)C)n2)CC1` [GT-06119, 2-(2,4-dioxotetrahydropyrimidin-1(2H)-yl)-4-(4-(((1-(1-isopropyl-6-((2-(4-methoxypiperidin-1-yl)pyrimidin-4-yl)amino)-1H-pyrazolo[4,3-c]pyridin-3-yl)piperidin-4-yl)(methyl)amino)methyl)piperidin-1-yl)isoindoline-1,3-dione] the same measures were 10 to 20%, 53 to 60% and “A (0%≤substrate protein remaining %≤80%)”. In the case of `COC1CCN(c2nccc(Nc3cc4c(cn3)c(N3CCN(CC5CCN(c6cccc7c6C(=O)N(N6CCC(=O)NC6=O)C7=O)CC5)CC3)nn4C(C)C)n2)CC1` [GT-06035, 2-(2,4-dioxotetrahydropyrimidin-1(2H)-yl)-4-(4-((4-(1-isopropyl-6-((2-(4-methoxypiperidin-1-yl)pyrimidin-4-yl)amino)-1H-pyrazolo[4,3-c]pyridin-3-yl)piperazin-1-yl)methyl)piperidin-1-yl)isoindoline-1,3-dione], the “Degradation … (substrate protein remaining %)” value at EGFR was “A (0%≤substrate protein remaining %≤80%)”. Regarding `CC(C)n1nc(N2CCC(N(C)Cc3ccc4c(c3)CN(N3CCC(=O)NC3=O)C4=O)CC2)c2cnc(Nc3ccnc(-c4cnn(S(=O)(=O)C5CC5)c4)n3)cc21` [GT-06019, 1-(5-(((1-(6-((2-(1-(cyclopropylsulfonyl)-1H-pyrazol-4-yl)pyrimidin-4-yl)amino)-1-isopropyl-1H-pyrazolo[4,3-c]pyridin-3-yl)piperidin-4-yl)(methyl)amino)methyl)-1-oxoisoindolin-2-yl)dihydropyrimidine-2,4 (1H,3H)-dione], the “Degradation … (substrate protein remaining %)” value at EGFR is “A (0%≤substrate protein remaining %≤80%)”. The same measure, in the same setting: next, `O=C1CCN(N2Cc3cc(CN4CCN(c5ccc(Nc6ncc7nc(Nc8ccccc8)n(C8CCCC8)c7n6)cc5)CC4)ccc3C2=O)C(=O)N1` [GT-05836, 1-(5-((4-(4-((9-cyclopentyl-8-(phenylamino)-9H-purin-2-yl)amino)phenyl)piperazin-1-yl)methyl)-1-oxoisoindolin-2-yl)dihydropyrimidine-2,4 (1H,3H)-dione]: “A (0%≤substrate protein remaining %≤80%)”. For `O=C1CCN(N2C(=O)c3ccc(N4CCC(CN5CCN(C6CCN(c7ccc(Nc8ncc9nc(Nc%10ccccc%10)n(C%10CCCC%10)c9n8)cc7)CC6)CC5)CC4)cc3C2=O)C(=O)N1` [GT-05955, 5-(4-((4-(1-(4-((9-cyclopentyl-8-(phenylamino)-9H-purin-2-yl)amino)phenyl)piperidin-4-yl)piperazin-1-yl)methyl)piperidin-1-yl)-2-(2,4-dioxotetrahydropyrimidin-1(2H)-yl)isoindoline-1,3-dione], the “Degradation … (substrate protein remaining %)” value at EGFR is recorded as “A (0%≤substrate protein remaining %≤80%)”. For the compound `CC(C)n1nc(N2CCC(N3CCN(Cc4ccc5c(c4)CN(N4CCC(=O)NC4=O)C5=O)CC3)CC2)c2cnc(Nc3ccnc(-c4cnn(S(=O)(=O)C5CC5)c4)n3)cc21` [GT-06077, 1-(5-((4-(1-(6-((2-(1-(cyclopropylsulfonyl)-1H-pyrazol-4-yl)pyrimidin-4-yl)amino)-1-isopropyl-1H-pyrazolo[4,3-c]pyridin-3-yl)piperidin-4-yl)piperazin-1-yl)methyl)-1-oxoisoindolin-2-yl)dihydropyrimidine-2,4 (1H,3H)-dione], the “Degradation … (substrate protein remaining %)” value on EGFR is “A (0%≤substrate protein remaining %≤80%)”.

For the origin of these results see patent US20260364184A1, “COMPOUND BASED ON OXOISOINDOLINYL-SUBSTITUTED TETRAHYDROPYRIMIDINE-DIONE AND USE THEREOF” (GLUETACS THERAPEUTICS (SHANGHAI) CO., LTD., priority 2023, published 2026).
